In patent US20250195556A1, “COMPOSITIONS, KITS, AND METHODS TO INDUCE ACQUIRED CYTORESISTANCE USING STRESS PROTEIN INDUCERS” (FRED HUTCHINSON CANCER RESEARCH CENTER, priority 2014, published 2025):

Tests used:
[1] = system: Male CD-1 mice; experiment: Maleate model of AKI (FeS, SnPP, FeS+SnPP); type: in vivo; conditions: 1 mg FeS or 1 μmole SnPP IV alone 18 hrs before maleate
From the text: (§1) Methods. Male CD-1 mice (25-40 grams) Charles River, Wilmington, MA) were used for all experiments. They were housed under standard vivarium conditions with free food and water access. All experiments were approved by the Fred Hutchinson Cancer Research Center IACUC in accordance with NIH guidelines.
Effects of Fe sucrose (FeS)/tin protoporphyrin (SnPP) on AKI severity. Maleate model of AKI. When injected into rodents, maleate undergoes relatively selective proximal tubule cell uptake via organic anion transporters. Once intracellular accumulation occurs, maleate is a preferred substrate for succinyl-CoA: 3-oxoacid CoA transferase. […] Ample levels of CoA are essential for fatty acid “activation”, allowing for their subsequent metabolism through the Krebs cycle, yielding ATP. In the absence of this process, proximal tubule ATP depletion and cell injury result. Additionally, maleate conjugates the sulfhydryl group of glutathione (GSH), culminating in GSH depletion and potential oxidant tubular stress.
The following experiment tested whether FeS, SnPP or combined FeS+SnPP can mitigate this form of acute kidney injury (AKI). […] The severity of kidney injury was assessed by determining plasma blood urea nitrogen (BUN) and plasma creatinine (PCr) concentrations.

[2] = system: HO-1; experiment: Renal cortical HO-1 mRNA and protein after FeS, SnPP or B12; type: in vivo, mice; conditions: for HO-1 protein increases (FIG. 21): within 4 hrs and persists for 18 hrs of IV injection
From the text: as §1
Effects of FeS, SnPP, and B12 on renal cortical induction of heme oxygenase 1 (HO-1). The following experiments assessed the effects of FeS, SnPP, and B12 on the possible induction of the cytoprotective protein HO-1. To this end, mice were injected with each of these agents, as noted above. Either 4 or 18 hrs later, they were anesthetized and the kidneys were removed through a midline abdominal incision. The renal cortices were dissected on ice and then extracted for protein and mRNA. The samples were then assayed for HO-1 protein by ELISA, and HO-1 mRNA by RT-PCR, factored by GAPDH levels. Five normal mice provided control values.

iron sucrose [FeS]
Severity of maleate-induced renal injury (BUN, PCr) [1]: Neither SnPP alone nor FeS alone significantly altered | Renal cortical HO-1 protein levels ([2]; 18 hr time point): remained elevated | HO-1 protein increases (FIG. 21) [2]: marked HO-1 protein increases

cyanocobalamin [B12]
HO-1 protein increases (FIG. 21) [2]: marked HO-1 protein increases
